{"source": "ChEMBL document CHEMBL1201862", "about": "“PubChem BioAssay data set” (2004)", "assay_in_all_cases": "NCI anticancer screen, dose series, 48 h", "key": {"[1]": {"system": "HOP-92"}, "[2]": {"system": "MCF7"}, "[3]": {"system": "HCT-15"}, "[4]": {"system": "Malme-3M"}, "[5]": {"system": "HCC 2998"}, "[6]": {"system": "SF-295"}, "[7]": {"system": "MDA-N"}, "[8]": {"system": "M14"}, "[9]": {"system": "T47D"}, "[10]": {"system": "ACHN"}, "[11]": {"system": "SN12C"}, "[12]": {"system": "HL-60"}, "[13]": {"system": "MDA-MB-231"}, "[14]": {"system": "UACC-257"}, "[15]": {"system": "SNB-19"}, "[16]": {"system": "HT-29"}, "[17]": {"system": "SK-MEL-5"}, "[18]": {"system": "SNB-75"}, "[19]": {"system": "NCI/ADR-RES"}, "[20]": {"system": "Hs-578T"}, "[21]": {"system": "LOX IMVI"}, "[22]": {"system": "PC-3"}, "[23]": {"system": "OVCAR-5"}, "[24]": {"system": "NCI-H226"}, "[25]": {"system": "HCT-116"}, "[26]": {"system": "UACC-62"}, "[27]": {"system": "786-0"}, "[28]": {"system": "SW-620"}, "[29]": {"system": "TK-10"}, "[30]": {"system": "NCI-H460"}, "[31]": {"system": "MDA-MB-435"}, "[32]": {"system": "NCI-H23"}, "[33]": {"system": "OVCAR-3"}, "[34]": {"system": "OVCAR-8"}, "[35]": {"system": "SF-268"}, "[36]": {"system": "A549"}, "[37]": {"system": "EKVX"}, "[38]": {"system": "COLO 205"}, "[39]": {"system": "RXF 393"}, "[40]": {"system": "K562"}, "[41]": {"system": "CCRF-CEM"}, "[42]": {"system": "SK-OV-3"}, "[43]": {"system": "SK-MEL-28"}, "[44]": {"system": "UO-31"}, "[45]": {"system": "MOLT-4"}, "[46]": {"system": "OVCAR-4"}, "[47]": {"system": "U-251"}, "[48]": {"system": "IGROV-1"}, "[49]": {"system": "SK-MEL-2"}, "[50]": {"system": "DU-145"}, "[51]": {"system": "HOP-62"}, "[52]": {"system": "RPMI-8226"}, "[53]": {"system": "CAKI-1"}, "[54]": {"system": "NCI-H522"}, "[55]": {"system": "KM12"}, "[56]": {"system": "A498"}, "[57]": {"system": "SF-539"}}, "note": "“And” between values parts separate entries of the source, which are not always exact repeats. Equal values may be shown once.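 Growth conditions: 96-well plates. Treatment: test compound, 48 hours, 5 concentrations. Analysis: linear interpolation between bracketing concentrations; unreached endpoints set to highest concentration. Abbreviation: GI50, concentration required for 50% inhibition of growth.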 The source made the active and inactive calls. Cut-off read from the data, not from the text of the source: active = GI50 up to about 1.1 µM and inactive = higher.", "data": [{"smiles": "CCCCCCCCCCOC1C(C(C)OCCCN(C)C)OC2OC3(CCCCC3)OC21", "note": "(stereo not given)", "values": [{"measurement": "GI50", "setting": "[1]", "value": "3.4 µM (inactive)"}, {"measurement": "GI50", "setting": "[2]", "value": "26.2 µM (inactive)"}, {"measurement": "GI50", "setting": "[3]", "value": 1.36, "unit": "µM"}, {"measurement": "GI50", "setting": "[4]", "value": "15.2 µM (inactive)"}, {"measurement": "GI50", "setting": "[5]", "value": "13.3 µM (inactive)"}, {"measurement": "GI50", "setting": "[6]", "value": "17.5 µM (inactive)"}, {"measurement": "GI50", "setting": "[7]", "value": "4.94 µM (inactive)"}, {"measurement": "GI50", "setting": "[8]", "value": "3.33 µM (inactive)"}, {"measurement": "GI50", "setting": "[9]", "value": "18.1 µM (inactive)"}, {"measurement": "GI50", "setting": "[10]", "value": "17.1 µM (inactive)"}, {"measurement": "GI50", "setting": "[11]", "value": "16.3 µM (inactive)"}, {"measurement": "GI50", "setting": "[12]", "value": "6.37 µM (inactive)"}, {"measurement": "GI50", "setting": "[13]", "value": "15.3 µM (inactive)"}, {"measurement": "GI50", "setting": "[14]", "value": "20.8 µM (inactive)"}, {"measurement": "GI50", "setting": "[15]", "value": "12.4 µM (inactive)"}, {"measurement": "GI50", "setting": "[16]", "value": "2.41 µM (inactive)"}, {"measurement": "GI50", "setting": "[17]", "value": "15.8 µM (inactive)"}, {"measurement": "GI50", "setting": "[18]", "value": "5.48 µM (inactive)"}, {"measurement": "GI50", "setting": "[19]", "value": "17 µM (inactive)"}, {"measurement": "GI50", "setting": "[20]", "value": "18.1 µM (inactive)"}, {"measurement": "GI50", "setting": "[21]", "value": "1.93 µM (inactive)"}, {"measurement": "GI50", "setting": "[22]", "value": "12.4 µM (inactive)"}, {"measurement": "GI50", "setting": "[23]", "value": "11.7 µM (inactive)"}, {"measurement": "GI50", "setting": "[24]", "value": "17.2 µM (inactive)"}, {"measurement": "GI50", "setting": "[25]", "value": "13.4 µM (inactive)"}, {"measurement": "GI50", "setting": "[26]", "value": "13.3 µM (inactive)"}, {"measurement": "GI50", "setting": "[27]", "value": "16.5 µM (inactive)"}, {"measurement": "GI50", "setting": "[28]", "value": "12.7 µM (inactive)"}, {"measurement": "GI50", "setting": "[29]", "value": "23.1 µM (inactive)"}, {"measurement": "GI50", "setting": "[30]", "value": "3.08 µM (inactive)"}, {"measurement": "GI50", "setting": "[31]", "value": "16.2 µM (inactive)"}, {"measurement": "GI50", "setting": "[32]", "value": "10.2 µM (inactive)"}, {"measurement": "GI50", "setting": "[33]", "value": "14.7 µM (inactive)"}, {"measurement": "GI50", "setting": "[34]", "value": "18.8 µM (inactive)"}, {"measurement": "GI50", "setting": "[35]", "value": "15.3 µM (inactive)"}, {"measurement": "GI50", "setting": "[36]", "value": "15.4 µM (inactive)"}, {"measurement": "GI50", "setting": "[37]", "value": "18.2 µM (inactive)"}, {"measurement": "GI50", "setting": "[38]", "value": "3.48 µM (inactive)"}, {"measurement": "GI50", "setting": "[39]", "value": "14.9 µM (inactive)"}, {"measurement": "GI50", "setting": "[40]", "value": "3.47 µM (inactive)"}, {"measurement": "GI50", "setting": "[41]", "value": "10.7 µM (inactive)"}, {"measurement": "GI50", "setting": "[42]", "value": "18.5 µM (inactive)"}, {"measurement": "GI50", "setting": "[43]", "value": "12.2 µM (inactive)"}, {"measurement": "GI50", "setting": "[44]", "value": "17.9 µM (inactive)"}, {"measurement": "GI50", "setting": "[45]", "value": "12.9 µM (inactive)"}, {"measurement": "GI50", "setting": "[46]", "value": "13.6 µM (inactive)"}, {"measurement": "GI50", "setting": "[47]", "value": "14.5 µM (inactive)"}, {"measurement": "GI50", "setting": "[48]", "value": "14.3 µM (inactive)"}, {"measurement": "GI50", "setting": "[49]", "value": "15.8 µM (inactive)"}, {"measurement": "GI50", "setting": "[50]", "value": "17.1 µM (inactive)"}, {"measurement": "GI50", "setting": "[51]", "value": "16.4 µM (inactive)"}, {"measurement": "GI50", "setting": "[52]", "value": "4.32 µM (inactive)"}, {"measurement": "GI50", "setting": "[53]", "value": "13.7 µM (inactive)"}, {"measurement": "GI50", "setting": "[54]", "value": "17.9 µM (inactive)"}]}, {"smiles": "Cc1cc(OCc2nn(CN3CCN(C)CC3)c(=S)n2/N=C/c2ccc(-c3ccc(Cl)cc3Cl)o2)ccc1Cl", "values": [{"measurement": "GI50", "setting": "[1]", "value": "21 µM (inactive)"}, {"measurement": "GI50", "setting": "[2]", "value": "39.4 µM (inactive)"}, {"measurement": "GI50", "setting": "[3]", "value": 28.5, "unit": "µM"}, {"measurement": "GI50", "setting": "[5]", "value": "16.1 µM (inactive)"}, {"measurement": "GI50", "setting": "[6]", "value": "84.1 µM (inactive)"}, {"measurement": "GI50", "setting": "[7]", "value": "39.3 µM (inactive)"}, {"measurement": "GI50", "setting": "[8]", "value": "33.7 µM (inactive)"}, {"measurement": "GI50", "setting": "[9]", "value": "38 µM (inactive)"}, {"measurement": "GI50", "setting": "[10]", "value": "> 100 µM (inactive)"}, {"measurement": "GI50", "setting": "[12]", "value": "22.3 µM (inactive)"}, {"measurement": "GI50", "setting": "[55]", "value": "20.3 µM (inactive)"}, {"measurement": "GI50", "setting": "[13]", "value": "97.5 µM (inactive)"}, {"measurement": "GI50", "setting": "[14]", "value": "53.5 µM (inactive)"}, {"measurement": "GI50", "setting": "[56]", "value": "36.3 µM (inactive)"}, {"measurement": "GI50", "setting": "[16]", "value": "28.2 µM (inactive)"}, {"measurement": "GI50", "setting": "[17]", "value": "44.5 µM (inactive)"}, {"measurement": "GI50", "setting": "[19]", "value": "38 µM (inactive)"}, {"measurement": "GI50", "setting": "[20]", "value": "39.6 µM (inactive)"}, {"measurement": "GI50", "setting": "[21]", "value": "80.7 µM (inactive)"}, {"measurement": "GI50", "setting": "[22]", "value": "85.3 µM (inactive)"}, {"measurement": "GI50", "setting": "[23]", "value": "> 100 µM (inactive)"}, {"measurement": "GI50", "setting": "[24]", "value": "40.4 µM (inactive)"}, {"measurement": "GI50", "setting": "[25]", "value": "> 100 µM (inactive)"}, {"measurement": "GI50", "setting": "[27]", "value": "90.2 µM (inactive)"}, {"measurement": "GI50", "setting": "[28]", "value": "15.7 µM (inactive)"}, {"measurement": "GI50", "setting": "[29]", "value": "75.2 µM (inactive)"}, {"measurement": "GI50", "setting": "[30]", "value": "67.8 µM (inactive)"}, {"measurement": "GI50", "setting": "[57]", "value": "> 100 µM (inactive)"}, {"measurement": "GI50", "setting": "[31]", "value": "29.5 µM (inactive)"}, {"measurement": "GI50", "setting": "[32]", "value": "39.6 µM (inactive)"}, {"measurement": "GI50", "setting": "[33]", "value": "80 µM (inactive)"}, {"measurement": "GI50", "setting": "[34]", "value": "44 µM (inactive)"}, {"measurement": "GI50", "setting": "[35]", "value": "33.1 µM (inactive)"}, {"measurement": "GI50", "setting": "[37]", "value": "> 100 µM (inactive)"}, {"measurement": "GI50", "setting": "[39]", "value": "17.2 µM (inactive)"}, {"measurement": "GI50", "setting": "[40]", "value": "34.6 µM (inactive)"}, {"measurement": "GI50", "setting": "[41]", "value": "35.3 µM (inactive)"}, {"measurement": "GI50", "setting": "[42]", "value": "> 100 µM (inactive)"}, {"measurement": "GI50", "setting": "[43]", "value": "33.1 µM (inactive)"}, {"measurement": "GI50", "setting": "[44]", "value": "57.1 µM (inactive)"}, {"measurement": "GI50", "setting": "[45]", "value": "67.8 µM (inactive)"}, {"measurement": "GI50", "setting": "[46]", "value": "27 µM (inactive)"}, {"measurement": "GI50", "setting": "[47]", "value": "> 100 µM (inactive)"}, {"measurement": "GI50", "setting": "[48]", "value": "> 100 µM (inactive)"}, {"measurement": "GI50", "setting": "[49]", "value": "> 100 µM (inactive)"}, {"measurement": "GI50", "setting": "[50]", "value": "> 100 µM (inactive)"}, {"measurement": "GI50", "setting": "[51]", "value": "39.3 µM (inactive)"}, {"measurement": "GI50", "setting": "[52]", "value": "17.1 µM (inactive)"}, {"measurement": "GI50", "setting": "[53]", "value": "47.9 µM (inactive)"}, {"measurement": "GI50", "setting": "[54]", "value": "24.5 µM (inactive)"}]}, {"smiles": "Nc1ncn(C2OC(CO)C(O)C2O)c(=O)n1", "note": "(stereo not given)", "values": [{"measurement": "GI50", "setting": "[45]", "value": "735 nM (active) and 1.22 µM (inactive)"}]}]}
